Residues, ends and D or L forms follow the SMILES beside them. *: point of attachment. Cbz = O=C(OCc1ccccc1)*; NHOH = ON*

These results are taken from article PMC11684173 (ACS Omega, 2024).

Experiment in all cases: biochemical
In assay [1] the target is T1, Atroxlysin-I (Atr-I) (Bothrops atrox, UniProt P85420).
Assay [2] has as its target Leucurolysin-a (Leuc-a) (Bothrops leucurus, UniProt P84907).
In assay [3] the target is T1, Atroxlysin-I (Atr-I). The assay is classed as binding.

Sequence of Leucurolysin-a (Leuc-a) (P84907 whole entry, looked up): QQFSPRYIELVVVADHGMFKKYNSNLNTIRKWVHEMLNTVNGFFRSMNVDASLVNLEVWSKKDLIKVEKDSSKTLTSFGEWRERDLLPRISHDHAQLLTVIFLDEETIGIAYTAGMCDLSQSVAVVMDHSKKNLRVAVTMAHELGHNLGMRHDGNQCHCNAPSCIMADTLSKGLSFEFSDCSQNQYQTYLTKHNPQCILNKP
T1 sequence (P85420 whole entry, added parts left off): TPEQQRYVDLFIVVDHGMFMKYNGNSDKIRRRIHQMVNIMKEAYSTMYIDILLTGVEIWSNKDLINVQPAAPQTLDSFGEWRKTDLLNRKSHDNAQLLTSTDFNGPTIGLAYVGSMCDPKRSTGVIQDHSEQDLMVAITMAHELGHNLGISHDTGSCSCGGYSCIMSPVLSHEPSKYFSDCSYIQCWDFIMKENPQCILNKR

Regarding `CC(C)C[C@H](NC(=O)[C@@H]1CCCN1C(=O)OCc1ccccc1)C(=O)N[C@@H](C)C(=O)NO` [COL, collagenase-I inhibitor] (Cbz-Pro-Leu-Ala-{NHOH}), in assay [1], the Hill coef. is listed as 2.28 and the IC50 was 8000 ± 2000 nM. In addition, in assay [2], the Hill coef. worked out at 1.65 and the IC50 came out at 6000 ± 2000 nM.

As for `CNC(=O)[C@H](Cc1ccccc1)NC(=O)[C@H](CC(C)C)[C@H](CSc1cccs1)C(=O)NO` [BAT, batimastat], in assay [1], the Hill coef. was found to be 0.85 and the IC50 was 50 ± 30 nM. Also, in assay [2], the Hill coef. is 4.91 and the IC50 worked out at 12000 ± 1000 nM.

Turning to `CC(C)(NS(=O)(=O)c1ccc(Oc2ccc(F)cc2)cc1)C(=O)NO` [CP4, CP471474], in assay [1], the Hill coef. is listed as 2.37 and the IC50 is 20 ± 10 nM. In assay [2], the Hill coef. is 0.55 and the IC50 stood at 210 ± 110 nM. In assay [3], the Ki stood at 160 ± 10 nM, the enthalpic contribution was -3.8 kcal/mol and the entropic contribution amounted to 18.4 cal/K/mol.

In assay [1], `CNC(=O)[C@@H](NC(=O)[C@H](CC(C)C)[C@H](O)C(=O)NO)C(C)(C)C` [MAR, marimastat] registered a Hill coef. of 2.05 and an IC50 of 80 ± 10 nM. In assay [2], this compound showed a Hill coef. of 0.78 and an IC50 of 690 ± 20 nM. In assay [3], the Ki came out at 60 ± 10 nM, the enthalpic contribution is -1.5 kcal/mol and the entropic contribution is reported as 28.2 cal/K/mol.

In assay [1], `CC1(C)SCCN(S(=O)(=O)c2ccc(Oc3ccncc3)cc2)[C@H]1C(=O)NO` [PRI, prinomastat] showed a Hill coef. of 0.77 and an IC50 of 160 ± 10 nM. Also, in assay [2], the Hill coef. is given as 1.96 and the midpoint of inhibition, the IC50, lay at 20 ± 10 nM. In assay [3], this compound displayed a Ki of 70 ± 50 nM, an enthalpic contribution of -0.8 kcal/mol and an entropic contribution of 30 cal/K/mol.

In assay [1], `CNC(=O)[C@H](CCc1ccccc1)NC(=O)[C@H](CC(=O)NO)CC(C)C` [MMP, mmp-III inhibitor] yielded a Hill coef. of 1.79 and an IC50 of 50 ± 10 nM. In assay [2], this compound showed a Hill coef. of 1.34 and an IC50 of 360 ± 170 nM.

In general, IC50 refers to the concentration at which inhibition is half-maximal. Lower therefore signals greater potency. What is called Ki is a measure of affinity in units of concentration, obtained from inhibition or displacement.
